# Experimental data as given in ChEMBL document CHEMBL1201862, “PubChem BioAssay data set” (2004).
# The source made the active and inactive calls.
# What was measured:
# [1] = target: T1, Rac GTPase-activating protein 1 (Homo sapiens, UniProt Q9H0H5); assay: blockers of MgcRacGAP-driven Rac1 GTP hydrolysis – biochemical, ADP Hunter fluorescence, primary and confirmatory, confirmation (AID 624330); assay type: functional
# T1 sequence (Q9H0H5 whole entry): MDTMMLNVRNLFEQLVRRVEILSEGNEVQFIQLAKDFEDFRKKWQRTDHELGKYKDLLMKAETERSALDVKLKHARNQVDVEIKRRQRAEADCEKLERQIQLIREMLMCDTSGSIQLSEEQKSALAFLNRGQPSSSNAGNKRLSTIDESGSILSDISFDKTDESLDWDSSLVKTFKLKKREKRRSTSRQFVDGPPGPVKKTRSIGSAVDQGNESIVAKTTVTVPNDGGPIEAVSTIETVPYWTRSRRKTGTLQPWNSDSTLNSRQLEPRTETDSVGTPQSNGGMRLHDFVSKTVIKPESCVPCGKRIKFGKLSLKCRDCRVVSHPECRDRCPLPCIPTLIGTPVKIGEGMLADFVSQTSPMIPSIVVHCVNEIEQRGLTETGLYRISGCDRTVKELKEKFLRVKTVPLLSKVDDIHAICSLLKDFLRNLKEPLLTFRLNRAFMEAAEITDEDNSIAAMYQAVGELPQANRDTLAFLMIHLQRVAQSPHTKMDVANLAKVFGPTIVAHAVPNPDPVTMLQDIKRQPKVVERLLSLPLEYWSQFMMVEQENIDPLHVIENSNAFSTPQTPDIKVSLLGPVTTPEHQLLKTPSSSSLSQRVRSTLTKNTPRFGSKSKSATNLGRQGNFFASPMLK
# [2] = tested on: Escherichia coli; assay: microbe, parasite or virus in culture
# [3] = tested on: A-375; assay: proliferation inhibition in MITF-low A375 cells – cell-based, cherry-pick samples, set 2, counter-screen for MITF modulator project, dose response (AID 540335); assay type: functional; conditions: Homo sapiens
# [4] = target: T2, Cytochrome P450 2C9 (Homo sapiens, UniProt P11712)
# T2 sequence (P11712 whole entry): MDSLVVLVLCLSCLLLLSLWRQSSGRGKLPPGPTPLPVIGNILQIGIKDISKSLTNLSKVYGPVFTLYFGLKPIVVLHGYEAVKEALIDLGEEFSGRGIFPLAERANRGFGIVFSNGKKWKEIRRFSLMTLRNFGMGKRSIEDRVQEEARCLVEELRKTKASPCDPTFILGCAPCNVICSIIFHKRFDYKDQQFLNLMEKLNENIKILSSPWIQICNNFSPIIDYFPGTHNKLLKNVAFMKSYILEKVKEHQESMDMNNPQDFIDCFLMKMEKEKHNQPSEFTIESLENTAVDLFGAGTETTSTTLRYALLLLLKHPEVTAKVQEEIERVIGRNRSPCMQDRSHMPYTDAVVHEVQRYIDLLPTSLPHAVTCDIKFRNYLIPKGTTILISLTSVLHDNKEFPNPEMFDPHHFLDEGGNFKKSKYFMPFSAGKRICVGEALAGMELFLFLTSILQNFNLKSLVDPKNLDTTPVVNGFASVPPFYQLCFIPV
# [5] = tested on: A-375; assay: MITF: Counter assay: A375 proliferation Measured in Cell-Based System Using Plate Reader - 2084-03_Inhibitor_Dose_DryPowder_Activity. [Related pubchem assays (depositor defined):AID488944]; assay type: functional; conditions: Homo sapiens
# [6] = target: Induced myeloid leukemia cell differentiation protein Mcl-1 (Homo sapiens, UniProt Q07820); assay type: functional
# [7] = target: T3, Hexokinase HKDC1 (Homo sapiens, UniProt Q2TB90); assay: inhibition of HKDC1 glucose phosphorylation – biochemical, W721R variant, dose response (AID 504729); assay type: functional
# T3 sequence (Q2TB90 whole entry): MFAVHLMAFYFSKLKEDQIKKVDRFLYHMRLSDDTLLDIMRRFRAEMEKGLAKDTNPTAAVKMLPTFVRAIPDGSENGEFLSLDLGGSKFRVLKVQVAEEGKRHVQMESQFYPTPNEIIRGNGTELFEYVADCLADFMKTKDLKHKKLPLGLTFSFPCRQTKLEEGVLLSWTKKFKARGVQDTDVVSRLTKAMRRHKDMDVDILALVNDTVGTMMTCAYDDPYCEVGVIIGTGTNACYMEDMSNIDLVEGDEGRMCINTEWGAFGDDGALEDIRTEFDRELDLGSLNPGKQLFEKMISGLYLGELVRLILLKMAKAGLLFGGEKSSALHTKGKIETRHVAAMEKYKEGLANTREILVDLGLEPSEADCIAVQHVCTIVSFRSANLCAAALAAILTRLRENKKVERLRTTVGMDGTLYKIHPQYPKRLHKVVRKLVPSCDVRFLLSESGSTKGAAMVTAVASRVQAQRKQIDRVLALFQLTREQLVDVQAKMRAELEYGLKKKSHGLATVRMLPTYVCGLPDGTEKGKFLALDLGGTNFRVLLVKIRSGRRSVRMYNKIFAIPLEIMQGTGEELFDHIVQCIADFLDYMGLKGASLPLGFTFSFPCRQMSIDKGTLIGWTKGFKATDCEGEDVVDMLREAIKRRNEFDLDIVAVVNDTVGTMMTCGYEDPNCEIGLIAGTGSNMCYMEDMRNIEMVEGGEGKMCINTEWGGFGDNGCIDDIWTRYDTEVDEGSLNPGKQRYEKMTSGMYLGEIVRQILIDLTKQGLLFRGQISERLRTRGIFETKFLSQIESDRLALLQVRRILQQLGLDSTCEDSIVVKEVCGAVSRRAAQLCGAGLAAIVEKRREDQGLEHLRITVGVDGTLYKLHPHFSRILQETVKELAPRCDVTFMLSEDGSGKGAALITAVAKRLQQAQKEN
# [8] = target: T4, Voltage-gated N-type calcium channel alpha-1B subunit/Amyloid beta A4 precursor protein-binding family A member 1 (Homo sapiens, UniProt Q00975+Q02410); assay type: protein assay
# T4 sequence (Q00975 whole entry): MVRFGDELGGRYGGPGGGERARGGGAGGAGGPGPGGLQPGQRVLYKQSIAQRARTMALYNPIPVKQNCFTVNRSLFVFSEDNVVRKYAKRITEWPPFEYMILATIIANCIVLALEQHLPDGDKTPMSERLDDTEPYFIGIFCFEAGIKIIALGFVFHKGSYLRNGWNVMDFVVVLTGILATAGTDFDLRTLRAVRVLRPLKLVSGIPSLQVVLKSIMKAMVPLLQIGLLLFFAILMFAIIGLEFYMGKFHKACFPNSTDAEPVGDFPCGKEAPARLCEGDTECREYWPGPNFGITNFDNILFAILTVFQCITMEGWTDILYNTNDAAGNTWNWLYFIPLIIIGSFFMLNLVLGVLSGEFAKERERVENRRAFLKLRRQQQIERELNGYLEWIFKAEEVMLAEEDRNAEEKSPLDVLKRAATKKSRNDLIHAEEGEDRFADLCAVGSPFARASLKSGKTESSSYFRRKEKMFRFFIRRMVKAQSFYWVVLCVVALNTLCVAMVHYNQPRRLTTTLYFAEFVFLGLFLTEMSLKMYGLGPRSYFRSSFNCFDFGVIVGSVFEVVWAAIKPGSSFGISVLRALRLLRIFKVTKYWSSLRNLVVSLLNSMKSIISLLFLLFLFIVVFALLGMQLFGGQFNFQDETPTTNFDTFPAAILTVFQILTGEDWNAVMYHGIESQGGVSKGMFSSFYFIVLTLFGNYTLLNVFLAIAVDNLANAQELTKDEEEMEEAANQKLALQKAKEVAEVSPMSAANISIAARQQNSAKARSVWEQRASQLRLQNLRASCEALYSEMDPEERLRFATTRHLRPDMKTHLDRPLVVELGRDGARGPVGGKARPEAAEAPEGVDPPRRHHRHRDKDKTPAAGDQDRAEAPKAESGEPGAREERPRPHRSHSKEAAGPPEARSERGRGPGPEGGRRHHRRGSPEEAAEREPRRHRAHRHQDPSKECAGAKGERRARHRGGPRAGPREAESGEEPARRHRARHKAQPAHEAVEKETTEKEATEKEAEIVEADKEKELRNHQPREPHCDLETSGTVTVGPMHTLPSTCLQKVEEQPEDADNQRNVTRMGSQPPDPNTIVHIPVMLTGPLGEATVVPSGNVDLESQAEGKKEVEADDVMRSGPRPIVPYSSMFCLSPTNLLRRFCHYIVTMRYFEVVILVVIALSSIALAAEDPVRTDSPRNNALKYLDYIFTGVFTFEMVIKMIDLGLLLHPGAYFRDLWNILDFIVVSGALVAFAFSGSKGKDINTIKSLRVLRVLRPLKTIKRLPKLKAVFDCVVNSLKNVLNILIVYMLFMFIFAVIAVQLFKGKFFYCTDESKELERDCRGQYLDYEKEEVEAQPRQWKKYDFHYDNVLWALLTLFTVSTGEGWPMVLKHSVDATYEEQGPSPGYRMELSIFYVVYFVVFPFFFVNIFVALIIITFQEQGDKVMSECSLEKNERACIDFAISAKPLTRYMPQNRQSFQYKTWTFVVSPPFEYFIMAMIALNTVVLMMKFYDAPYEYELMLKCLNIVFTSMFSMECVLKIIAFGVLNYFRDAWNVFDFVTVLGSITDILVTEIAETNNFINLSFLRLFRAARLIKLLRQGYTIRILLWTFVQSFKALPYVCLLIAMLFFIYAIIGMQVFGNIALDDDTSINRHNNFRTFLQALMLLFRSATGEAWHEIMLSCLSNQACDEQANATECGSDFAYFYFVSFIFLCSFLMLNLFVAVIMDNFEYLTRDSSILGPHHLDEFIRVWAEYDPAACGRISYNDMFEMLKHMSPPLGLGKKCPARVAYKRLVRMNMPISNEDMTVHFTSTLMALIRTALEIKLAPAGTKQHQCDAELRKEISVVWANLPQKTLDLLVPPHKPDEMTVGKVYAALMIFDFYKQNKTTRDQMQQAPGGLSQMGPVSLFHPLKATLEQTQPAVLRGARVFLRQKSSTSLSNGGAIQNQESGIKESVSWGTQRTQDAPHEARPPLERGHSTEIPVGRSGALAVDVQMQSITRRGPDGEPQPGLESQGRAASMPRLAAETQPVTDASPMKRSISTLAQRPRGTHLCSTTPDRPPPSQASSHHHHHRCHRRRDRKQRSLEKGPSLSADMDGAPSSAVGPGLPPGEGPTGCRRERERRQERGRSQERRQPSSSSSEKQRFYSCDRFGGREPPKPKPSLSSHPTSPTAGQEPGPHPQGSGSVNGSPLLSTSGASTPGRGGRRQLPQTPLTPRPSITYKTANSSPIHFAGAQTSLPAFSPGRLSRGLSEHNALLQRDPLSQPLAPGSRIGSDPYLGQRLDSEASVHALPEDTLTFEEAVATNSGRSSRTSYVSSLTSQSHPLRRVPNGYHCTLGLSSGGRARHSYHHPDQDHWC
# T4 sequence (Q02410 whole entry): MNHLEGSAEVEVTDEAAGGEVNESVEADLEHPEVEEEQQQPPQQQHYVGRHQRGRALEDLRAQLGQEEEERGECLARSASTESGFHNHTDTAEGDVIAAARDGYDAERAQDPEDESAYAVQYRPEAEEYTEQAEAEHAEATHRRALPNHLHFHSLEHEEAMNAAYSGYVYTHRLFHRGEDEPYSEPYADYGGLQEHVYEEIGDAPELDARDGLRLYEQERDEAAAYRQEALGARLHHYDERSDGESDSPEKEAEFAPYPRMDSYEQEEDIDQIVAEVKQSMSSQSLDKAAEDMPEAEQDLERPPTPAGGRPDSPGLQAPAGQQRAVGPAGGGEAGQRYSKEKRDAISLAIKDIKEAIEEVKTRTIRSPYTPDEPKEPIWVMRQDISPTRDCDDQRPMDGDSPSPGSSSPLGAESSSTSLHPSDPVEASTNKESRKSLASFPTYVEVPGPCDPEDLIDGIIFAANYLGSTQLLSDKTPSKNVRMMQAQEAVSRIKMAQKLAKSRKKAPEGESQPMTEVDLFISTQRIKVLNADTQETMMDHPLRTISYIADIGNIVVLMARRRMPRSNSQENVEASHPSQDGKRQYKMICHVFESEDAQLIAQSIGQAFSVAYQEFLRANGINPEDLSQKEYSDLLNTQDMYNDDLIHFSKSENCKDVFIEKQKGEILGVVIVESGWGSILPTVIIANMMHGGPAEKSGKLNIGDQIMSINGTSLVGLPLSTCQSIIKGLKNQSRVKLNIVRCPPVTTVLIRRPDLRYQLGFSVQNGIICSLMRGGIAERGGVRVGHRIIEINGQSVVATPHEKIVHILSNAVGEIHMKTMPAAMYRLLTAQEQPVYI
# [9] = target: T4, Voltage-gated N-type calcium channel alpha-1B subunit/Amyloid beta A4 precursor protein-binding family A member 1; assay type: protein assay; remark: listed apart in the source
# [10] = target: Genome polyprotein (dengue virus type 2, UniProt P29990); assay: flavivirus cap methylation enzyme inhibition – biochemical, confirmation dose response, primary screen (AID 588689); assay type: functional
# Genome polyprotein, sequence (P29990 2492-3391 limits assumed): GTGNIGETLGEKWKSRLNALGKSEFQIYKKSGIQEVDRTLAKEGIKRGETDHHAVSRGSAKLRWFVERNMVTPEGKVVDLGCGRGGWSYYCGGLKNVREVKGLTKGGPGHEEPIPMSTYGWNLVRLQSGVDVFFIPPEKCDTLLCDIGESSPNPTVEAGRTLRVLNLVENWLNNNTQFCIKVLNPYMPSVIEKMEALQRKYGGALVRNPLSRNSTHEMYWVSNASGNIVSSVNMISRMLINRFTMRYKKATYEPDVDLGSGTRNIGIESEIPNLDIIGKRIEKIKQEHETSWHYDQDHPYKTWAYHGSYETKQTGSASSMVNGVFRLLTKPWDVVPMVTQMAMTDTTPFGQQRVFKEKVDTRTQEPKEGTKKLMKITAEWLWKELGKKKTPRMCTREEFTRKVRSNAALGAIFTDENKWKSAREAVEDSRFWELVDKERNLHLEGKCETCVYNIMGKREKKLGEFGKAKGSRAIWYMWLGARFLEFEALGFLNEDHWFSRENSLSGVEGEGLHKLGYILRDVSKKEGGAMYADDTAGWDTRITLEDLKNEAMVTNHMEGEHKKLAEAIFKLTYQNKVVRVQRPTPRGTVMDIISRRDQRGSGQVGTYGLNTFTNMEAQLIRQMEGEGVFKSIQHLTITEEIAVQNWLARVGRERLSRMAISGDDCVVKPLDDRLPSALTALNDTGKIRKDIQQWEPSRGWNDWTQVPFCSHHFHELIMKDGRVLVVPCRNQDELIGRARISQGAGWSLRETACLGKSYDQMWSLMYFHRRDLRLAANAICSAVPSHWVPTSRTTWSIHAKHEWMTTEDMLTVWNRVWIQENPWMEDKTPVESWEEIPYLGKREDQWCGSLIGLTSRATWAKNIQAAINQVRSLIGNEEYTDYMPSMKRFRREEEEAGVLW
# [11] = target: T5, Carboxy-terminal domain RNA polymerase II polypeptide A small phosphatase 1 (Homo sapiens, UniProt Q9GZU7); assay: CTDSP1 inhibitors, concentration-response, biochemical, absorbance readout, ultra-high-throughput screen actives (AID 540297); assay type: functional
# T5 sequence (Q9GZU7 whole entry): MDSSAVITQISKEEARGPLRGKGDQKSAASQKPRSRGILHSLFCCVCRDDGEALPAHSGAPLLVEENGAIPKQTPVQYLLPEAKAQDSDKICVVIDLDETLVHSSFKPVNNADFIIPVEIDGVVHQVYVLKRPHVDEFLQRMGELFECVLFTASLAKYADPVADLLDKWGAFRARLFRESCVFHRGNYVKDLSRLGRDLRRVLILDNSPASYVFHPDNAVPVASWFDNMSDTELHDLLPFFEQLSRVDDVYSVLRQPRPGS
# [12] = target: T6, Coagulation factor XII (Homo sapiens, UniProt P00748); assay type: functional;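 note: activated factor XIIa alpha cleaving a fluorogenic AMC peptide substrate; inhibitor potency from loss of enzyme activity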
# T6 sequence (P00748 whole entry): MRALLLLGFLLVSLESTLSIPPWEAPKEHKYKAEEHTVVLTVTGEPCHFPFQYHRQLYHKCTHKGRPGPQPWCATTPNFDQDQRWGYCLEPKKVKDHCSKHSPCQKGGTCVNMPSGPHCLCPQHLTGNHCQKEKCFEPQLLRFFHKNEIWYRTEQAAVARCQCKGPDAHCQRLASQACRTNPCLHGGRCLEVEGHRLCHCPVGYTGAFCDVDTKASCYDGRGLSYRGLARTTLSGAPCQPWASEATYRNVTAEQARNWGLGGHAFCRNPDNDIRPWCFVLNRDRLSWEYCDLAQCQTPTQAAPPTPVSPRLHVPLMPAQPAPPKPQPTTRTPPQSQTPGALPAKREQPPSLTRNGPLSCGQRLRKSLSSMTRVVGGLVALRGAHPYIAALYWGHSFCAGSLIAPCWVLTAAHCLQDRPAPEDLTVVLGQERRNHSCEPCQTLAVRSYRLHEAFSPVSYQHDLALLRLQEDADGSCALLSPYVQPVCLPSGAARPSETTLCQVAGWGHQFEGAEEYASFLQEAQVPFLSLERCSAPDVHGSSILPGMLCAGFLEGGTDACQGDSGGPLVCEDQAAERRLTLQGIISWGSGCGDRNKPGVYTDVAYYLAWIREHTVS
# [13] = tested on: HeLa; assay: ATP-based viability loss in HeLa cells – cell-based, CellTiter-Glo luminescence, cherry-pick samples, cytotoxicity control for MITF activator project, dose response (AID 540259); assay type: functional; conditions: Homo sapiens
# [14] = Vero E6 cell cytotoxicity, dose response, cytotoxicity control for non-replicating M. tuberculosis project, secondary assay (AID 492998); assay type: functional, VeroE6; conditions: Vero C1008
# [15] = HepG2 cell cytotoxicity, dose response, cytotoxicity control for non-replicating M. tuberculosis project (AID 489018); assay type: functional; conditions: Mycobacterium tuberculosis
# [16] = cells; assay type: functional
# [17] = THP-1 cell cytotoxicity, dose response, cytotoxicity control for non-replicating M. tuberculosis project (AID 489025); assay type: functional
# [18] = Luminescence Cell-Based Dose Retest to Confirm Inhibitors of Cancer Stem Cells. [Related pubchem assays (depositor defined):AID2717, AID2721]; assay type: functional; conditions: Homo sapiens
# [19] = target: T7, Microphthalmia-associated transcription factor (Homo sapiens, UniProt O75030); assay: reducers of TRPM1 reporter luminescence, concentration series – cell-based, SK-MEL-5, cherry-picked, set 3, MITF inhibitor project, dose response (AID 493073); assay type: functional;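 note: SK-MEL-5 melanoma cells with luciferase driven by the MITF target TRPM1 promoter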
# T7 sequence (O75030 whole entry): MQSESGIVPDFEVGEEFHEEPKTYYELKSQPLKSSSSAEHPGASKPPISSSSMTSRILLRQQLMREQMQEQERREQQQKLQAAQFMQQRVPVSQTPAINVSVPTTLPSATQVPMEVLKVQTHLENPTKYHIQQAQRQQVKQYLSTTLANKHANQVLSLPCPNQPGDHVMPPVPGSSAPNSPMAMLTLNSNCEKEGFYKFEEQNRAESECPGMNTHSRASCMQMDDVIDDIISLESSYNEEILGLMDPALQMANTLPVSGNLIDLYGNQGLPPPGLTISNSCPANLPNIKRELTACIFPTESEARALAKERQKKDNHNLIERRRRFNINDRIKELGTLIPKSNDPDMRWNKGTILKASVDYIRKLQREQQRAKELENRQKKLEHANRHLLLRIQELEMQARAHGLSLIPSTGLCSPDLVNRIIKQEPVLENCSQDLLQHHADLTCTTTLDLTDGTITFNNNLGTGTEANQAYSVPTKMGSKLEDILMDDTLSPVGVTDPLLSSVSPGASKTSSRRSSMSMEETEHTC
# [20] = target: Cytochrome P450 3A4 (Homo sapiens, UniProt P08684);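 note: CYP3A4 tested as one member of a cytochrome P450 panel screen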
# Cytochrome P450 3A4, sequence (P08684 whole entry): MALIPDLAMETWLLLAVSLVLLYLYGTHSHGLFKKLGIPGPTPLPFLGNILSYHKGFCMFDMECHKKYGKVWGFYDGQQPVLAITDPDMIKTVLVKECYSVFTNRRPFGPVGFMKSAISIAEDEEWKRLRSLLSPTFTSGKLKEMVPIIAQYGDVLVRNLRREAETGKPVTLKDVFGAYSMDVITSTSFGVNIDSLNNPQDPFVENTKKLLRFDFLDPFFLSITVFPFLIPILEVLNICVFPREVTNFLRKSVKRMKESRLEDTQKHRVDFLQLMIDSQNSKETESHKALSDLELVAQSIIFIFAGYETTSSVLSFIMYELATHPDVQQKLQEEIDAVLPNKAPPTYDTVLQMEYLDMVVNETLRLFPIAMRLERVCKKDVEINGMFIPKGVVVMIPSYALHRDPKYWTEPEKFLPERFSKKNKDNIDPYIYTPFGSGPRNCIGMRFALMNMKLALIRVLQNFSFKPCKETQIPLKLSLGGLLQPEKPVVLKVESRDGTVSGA
# [21] = target: T2, Cytochrome P450 2C9; remark: listed apart in the source
# [22] = target: Cytochrome P450 2C19 (Homo sapiens, UniProt P33261); assay: Cytochrome panel assay with activity outcomes. Panel member name: p450-cyp2c19 Compounds with AC50 equal or less than 10 uM are considered active; assay type: functional; conditions: read-out: AC50
# [23] = target: T8, Mannose-6-phosphate isomerase (Homo sapiens, UniProt P34949); assay: MPI inhibition at elevated mannose 6-phosphate – biochemical, fluorescence intensity, high mannose 6-phosphate, primary screen (AID 1220)
# T8 sequence (P34949 whole entry): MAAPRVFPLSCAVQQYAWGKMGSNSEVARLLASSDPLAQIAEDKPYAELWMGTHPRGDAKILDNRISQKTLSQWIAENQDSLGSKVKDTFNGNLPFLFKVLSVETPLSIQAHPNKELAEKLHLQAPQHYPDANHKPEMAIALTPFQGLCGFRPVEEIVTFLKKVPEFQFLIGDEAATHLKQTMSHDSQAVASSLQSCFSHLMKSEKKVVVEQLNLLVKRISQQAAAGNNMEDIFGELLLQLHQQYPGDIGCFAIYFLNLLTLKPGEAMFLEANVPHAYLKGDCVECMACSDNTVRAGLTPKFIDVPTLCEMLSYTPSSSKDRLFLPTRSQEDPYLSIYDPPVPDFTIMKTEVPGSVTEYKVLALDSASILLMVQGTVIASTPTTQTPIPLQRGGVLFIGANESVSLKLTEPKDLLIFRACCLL
# [24] = Trypanosoma cruzi growth suppression in host cells – NIH3T3 host cells, beta-gal luminescence, confirmation (AID 2044); assay type: functional, cell-based;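 note: intracellular parasites grown in NIH/3T3 mouse fibroblasts as host cells; luminescent beta-galactosidase reporter signal from transgenic T. cruzi replicating inside host cells; inhibitors lower the luminescence signal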
# [25] = NIH3T3 cell viability loss – ATP luminescence, mouse fibroblasts, counter-screen, dose response (AID 2010); assay type: functional, cell-based;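 note: cells exposed to compound for about 90 hours before reading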
smiles,measurement,setting,value
CC(C)C(=O)Nc1ccc(Nc2ccccc2)cc1,IC50,[1],51.1 µM (active)
same,AC50,[2],29.9 µM (active)
O=C(NCC1CCCO1)c1cc(-c2ccc(Cl)cc2Cl)on1 (centres undefined),AC50,[3],> 11 µM (active)
same,AC50,[4],inconclusive
same,AC50,[5],> 11 µM (active)
CCC1=NN2C(=N)/C(=C\c3ccc(OCc4cc(=O)n5nc(CC)sc5n4)c(OC)c3)C(=O)N=C2S1,IC50,[6],2.95 µM (active)
same,IC50,[7],41.1 µM (inactive)
same,IC50,[8],> 56.8 µM (not active)
same,IC50,[9],> 50 µM (inactive)
same,IC50,[10],61.9 µM (active)
same,IC50,[11],5.99 µM (active)
O=C(O)c1ccc(NCc2nc3ccccc3n2Cc2ccccc2)cc1,IC50,[12],> 50 µM (inactive)
Cc1ccc2c(Cl)c(C(=O)Nc3cccnc3)sc2c1,AC50,[13],46.7 µM (active)
CC1CCCC(NCC(O)COC(c2ccc(F)cc2)c2ccc(F)cc2)C1C (centres undefined),CC50,[14],> 20 µM (active)
same,AC50,[3],20.2 µM (active)
same,CC50,[15],16.1 µM (active)
same,IC50,[16],11.4 µM (active)
same,CC50,[17],15.8 µM (active)
same,AC50,[18],6.35 µM (active)
same,AC50,[19],10.8 µM (active)
Cc1cnc(CNc2cc(-c3ccccc3Cl)ncn2)cn1,AC50,[20],inconclusive
CCN(c1ccccc1)S(=O)(=O)c1ccc(C(=O)Nc2nnc(COC)o2)cc1,IC50,[12],> 50 µM (inactive)
CC(C)c1ccc(OCC(=O)N2CCN(C)CC2)c(Br)c1,AC50,[2],57.9 µM (active)
CCCC(=O)Nc1nc2nc(-c3ccccc3)cc(-c3ccccc3)n2n1,AC50,[21],11.2 nM (inconclusive)
same,AC50,[20],inconclusive
same,AC50,[22],11.2 µM (inconclusive)
CC(=O)/N=C(\N)Nc1nc2cc(C)ccc2o1,AC50,[3],> 35 µM (active)
same,AC50,[5],> 35 µM (active)
CCO/C(O)=C(/C)C1=NC(C)(C)Cc2ccccc21,IC50,[12],> 50 µM (inactive)
same,IC50,[23],37.9 µM (active)
same,EC50,[24],10.7 µM (active)
same,EC50,[25],> 60 µM (not active)
C/C(=N\Nc1ccccn1)c1ccc(C(C)C)cc1,AC50,[13],46.7 µM (active)
COc1cccc(-c2cc(O)c3cc(NC(C)=O)ccc3n2)c1,AC50,[2],28.2 µM (active)
